Data set [1] deals with HBV production in HepAD38 (AD38) cells. The data set is described as follows: Antiviral activity, inducible HBV expression system, AD38 cells. In kind it is cell-based, hepatitis B virus. As to conditions: for EC90: suppression of HBV production by 90%.
Protocol: Antiviral activity was measured using an inducible HBV expression system, AD38 cells. […] Initial experiments tested the activity of 10 μM HAP (percentage viral assembly at 24 hour). For active molecules, effective concentrations were determined for suppression of HBV production by 50% and by 90%; this value is reported in μM.
Another data set has as its system HepG2. The data set is described as follows: in vitro. How it is done: (§1) Antiviral activity was measured using an inducible HBV expression system, AD38 cells. (Ladner, S. K. et al., Antimicrob Agents Chemother 41, 1715-20 (1997)). Initial experiments tested the activity of 10 μM HAP (percentage viral assembly at 24 hour). For active molecules, effective concentrations were determined for suppression of HBV production by 50% and by 90%; this value is reported in μM. Compound toxicity was tested in the parent cell line, HepG2. […] All of these experiments were performed blind, in the laboratory of Raymond Schinazi (Emory University).

The nature of another data set: in vitro. As to conditions: human. How it is done: as §1
Data set [2] deals with labeled HBV core protein dimer, Cp150Bo (Hepatitis B virus genotype D subtype adw, UniProt P03147, C107A/C48A/C61A/R150C). The data set is described as follows: Fluorescence quenching assay of HBV assembly. As to conditions: single time point 24 hr after assembly initiated with NaCl, about 30±15% assembly without stimulation. In kind it is biochemical.
Where [3] appears, read: suppression of HBV production by 50%, read-out: HepAD38 EC50.
The mark [4] stands for this setting: value in parentheses in CC50 cell.

The structures appear in SMILES notation. Values joined by “and” are separate entries in the source; they are usually repeats but may differ in a detail not shown here. Equal entries are not always repeated. Where two headings read alike, the source gives them in different places. Bounds are passed on as bounds.

labeled HBV core protein dimer, Cp150Bo, sequence (P03147 1-150 C48A/C61A/C107A/R150C): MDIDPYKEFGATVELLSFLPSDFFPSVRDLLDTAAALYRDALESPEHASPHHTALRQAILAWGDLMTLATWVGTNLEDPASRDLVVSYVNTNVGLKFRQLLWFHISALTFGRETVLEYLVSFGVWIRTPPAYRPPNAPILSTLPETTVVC

Take `Nc1ccn([C@@H]2CS[C@H](CO)O2)c(=O)n1` [Compound 3TC, lamivudine, reference compound]: the inhibition (as a rule, how much of the control response was suppressed) at 10 µM in data set [1] (Hepatitis B virus, HePAD38, compound at 10 μM) was found to be 98.6%. Besides, the EC50 – broadly, the concentration needed to bring the measured effect to its halfway point – in data set [1] (Hepatitis B virus, HePAD38, suppression of HBV production by 50%, read-out: HepAD38 EC50) stood at 60 nM. The EC90 (commonly the concentration needed for an effect of 90%) in data set [1] (Hepatitis B virus, HePAD38) worked out at 200 nM. The Δ-Ct-HBV in data set [1] (compound at 10 μM) worked out at 6.17. For the same compound, the “(YI) ratio of CC50/EC50, therapeutic index” value in the data set on HepG2 was above 1000. This compound showed a CC50 in the data set “in vitro” above 100000 nM.
The compound `C#CCOCC1(COCC#C)COC2(CCN(CC3=C(C(=O)OC)C(c4ccc(F)cc4Cl)N=C(c4ccccn4)N3)CC2)OC1` (stereo not shown) [Compound B67] registered an Assembly in data set [2] of 84%.
In turn, `COC(=O)C1=C(CNCCOCCOCCN=[N+]=[N-])NC(c2ccccn2)=NC1c1ccc(F)cc1Cl` (stereo not shown) [Compound B68] displayed an Assembly in data set [2] of 49%.
Still for that read-out and setting: under `COC(=O)C1=C(CN2CCC3=NN(C)C(=O)C3C2)NC(c2ccccn2)=NC1c1ccc(F)cc1Cl` (stereo not shown) [Compound B69] stands 54%.
Turning to `C#CCNC(=O)CCCC(=O)N1CCN(CC2=C(C(=O)OC)C(c3ccc(F)cc3Cl)N=C(c3ccccn3)N2)CC1` (stereo not shown) [Compound B71], the Assembly in data set [2] is reported as 133%.
Same read-out and setting: under `COC(=O)C1=C(CN2CCN(CCOCCN=[N+]=[N-])CC2)NC(c2ccccn2)=NC1c1ccc(F)cc1Cl` (stereo not shown) [Compound B72] stands 29%.
In data set [2], `COC(=O)C1=C(CN2CCN(CCOCCOCCN=[N+]=[N-])CC2)NC(c2ccccn2)=NC1c1ccc(F)cc1Cl` (stereo not shown) [Compound B74] returned an Assembly of 21%.
Compound `C#CCCCCC(=O)N1CCN(CC2=C(C(=O)OC)C(c3ccc(F)cc3Cl)N=C(c3ccccn3)N2)CC1` (stereo not shown) [Compound B75] had an Assembly in data set [2] of 134%.
In data set [2], `COC(=O)C1=C(CN2CCOCC2)NC(c2ccncc2)=NC1c1ccc(F)cc1Cl` (stereo not shown) [Compound B76] had an Assembly of 36%.
As for `COC(=O)C1=C(C)NC(=S)NC1c1ccc(F)cc1Cl` (stereo not shown) [Compound B77], the Assembly in data set [2] is listed as 15%.
In turn, `COC(=O)C1=C(C)NC(c2ccncc2)=NC1c1ccc(F)cc1Cl` (stereo not shown) [Compound B-1] had an Assembly in data set [2] of 78%.
`CC1=C(C(=O)OCCN=[N+]=[N-])C(c2ccc(F)cc2Cl)N=C(c2ccncc2)N1` (stereo not shown) [Compound B-2]: in data set [2], the Assembly is recorded as 51%.
Same read-out and setting: the figure for `C#CCNC(=O)C1=C(C)NC(c2ccncc2)=NC1c1ccc(F)cc1Cl` (stereo not shown) [Compound B-3] is 48%.
In data set [2], `COC(=O)C1=C(C)NC(c2nc3ccc(OC)cc3s2)=NC1c1ccc(F)cc1Cl` (stereo not shown) [Compound B-4] had an Assembly of 56%.
As to `CC1=C(C(=O)OCCC2CCC(CNS(=O)(=O)c3cccc4c(N(C)C)cccc34)C2)C(c2ccc(F)cc2Cl)N=C(c2ccncc2)N1` (stereo not shown) [Compound B-5], the Assembly in data set [2] worked out at 54%.
Take `COC(=O)C1=C(C)NC(c2ccccn2)=NC1c1ccc(F)cc1Cl` (stereo not shown) [Compound B-6]: the Assembly in data set [2] worked out at 95%.
`COC(=O)C1=C(C)NC(c2ccccc2)=NC1c1ccc(F)cc1Cl` (stereo not shown) [Compound B-7] displayed an Assembly in data set [2] of 96%.
In the case of `C#CCOC(=O)C1=C(C)NC(c2ccccn2)=NC1c1ccc(F)cc1Cl` (stereo not shown) [Compound B-12], the Assembly in data set [2] is on record as 83%.
Same read-out and setting: the figure for `CC1=C(C(=O)NCc2cn(CCN3C(=O)c4ccccc4C3=O)nn2)C(c2ccc(F)cc2Cl)N=C(c2ccncc2)N1` (stereo not shown) [Compound B-13] is 55%.
Same read-out and setting: the figure for `C#CCNC(=O)c1ccc(C2=NC(c3ccc(F)cc3Cl)C(C(=O)OC)=C(C)N2)nc1` (stereo not shown) [Compound B-15] is 48%; for `COC(=O)C1=C(C)NC(c2ccc(Br)cn2)=NC1c1ccc(F)cc1Cl` (stereo not shown) [Compound B-17] it is 87%; for `COC(=O)C1=C(C)NC(c2ccccn2)=NC1c1ccc(F)cc1Br` (stereo not shown) [Compound B-18] it is 93%.
On the same count and under the same terms, the figure for `CCOC(=O)C1=C(c2ccccc2)NC(c2ccccn2)=NC1c1ccc(F)cc1Cl` (stereo not shown) [Compound B-22] is 77%; for `CCOC(=O)C1=C(c2ccccn2)NC(c2ccccn2)=NC1c1ccc(F)cc1Cl` (stereo not shown) [Compound B-23] it is 47%.
In turn, `COC(=O)C1=C(C(C)C)NC(c2ccccn2)=NC1c1ccc(F)cc1Cl` (stereo not shown) [Compound B-24] registered an Assembly in data set [2] of 70%.
`COC(=O)C1=C(CCl)NC(c2ccccn2)=NC1c1ccc(F)cc1Cl` (stereo not shown) [Compound B-25] had an Assembly in data set [2] of 54%.
For the compound `C#CCNCC1=C(C(=O)OC)C(c2ccc(F)cc2Cl)N=C(c2ccccn2)N1` (stereo not shown) [Compound B-34], the Assembly in data set [2] worked out at 65%.
On to `COC(=O)C1=C(CN2CCCC2)NC(c2ccccn2)=NC1c1ccc(F)cc1Cl` (stereo not shown) [Compound B-35], for which the Assembly in data set [2] amounted to 87%.
The same measure, in the same setting: the figure for `COC(=O)C1=C(CN2CCNCC2)NC(c2ccccn2)=NC1c1ccc(F)cc1Cl` (stereo not shown) [Compound B-36] is 92%; for `COC(=O)C1=C(CN2CCN(Cc3ccc(Br)cc3)CC2)NC(c2ccccn2)=NC1c1ccc(F)cc1Cl` (stereo not shown) [Compound B-54] it is 21%.
Still for that read-out and setting: the figure for `COC(=O)C1=C(CN2CCN(Cc3ccccn3)CC2)NC(c2ccccn2)=NC1c1ccc(F)cc1Cl` (stereo not shown) [Compound B-55] is 60%; for `COC(=O)C1=C(CN2CCN(CC3CCCCC3)CC2)NC(c2ccccn2)=NC1c1ccc(F)cc1Cl` (stereo not shown) [Compound B-56] it is 15%; for `CCOC(=O)C1=C(CNC23CC4CC(CC(C4)C2)C3)NC(c2ccccn2)=NC1c1ccc(F)cc1Cl` (stereo not shown) [Compound B-57] it is 49%.
For the compound `CCOC(=O)C1=C(CNCC23CC4CC(CC(C4)C2)C3)NC(c2ccccn2)=NC1c1ccc(F)cc1Cl` (stereo not shown) [Compound B-58], the Assembly in data set [2] worked out at 42%.
As for `C#CC(O)(C#C)C1CCN(CC2=C(C(=O)OC)C(c3ccc(F)cc3Cl)N=C(c3ccccn3)N2)CC1` (stereo not shown) [Compound B-59], in data set [2], the Assembly stood at 57%.
The same measure, in the same setting: the figure for `COC(=O)C1=C(CN2CCCCC2)NC(c2ccccn2)=NC1c1ccc(F)cc1Cl` (stereo not shown) [Compound B-60] is 60%.
As for `COC(=O)C1=C(CN2CCOCC2)NC(c2ccccn2)=NC1c1ccc(F)cc1Cl` (stereo not shown) [Compound B-061], the Assembly in data set [2] (listed as B61) is 99%; in data set [2] (listed as B-61) it was 51% and 80%. The EC50 in data set [1] (given in place of % inhibition at 10 μM, read-out: EC50 (printed in % Inhibition column)) stood at 550 nM; in data set [1] (setting [3]), 490 nM. In data set [1], this compound returned an EC90 of 1000 nM. Further, the CC50 in the data set with HepG2 is above 100000 nM. Besides, the “(YI) ratio of CC50/EC50, therapeutic index” value with HepG2 (setting [4]) was above 200.
Regarding `COC(=O)C1=C(CN2CCN(C(=O)CCCC(=O)NCCCN=[N+]=[N-])CC2)NC(c2ccccn2)=NC1c1ccc(F)cc1Cl` (stereo not shown) [Compound B-070], the Assembly in data set [2] turned out to be 123%. For the same compound, in data set [1] (compound at 10 μM), the % Inhibition (as a rule, the relative decrease from the control value, in per cent) was determined as 99.88% and the Δ-Ct-HBV came to 9.77. For the same compound, in data set [1] (setting [3]), the EC50 stood at 2300 nM. Also, in data set [1], the EC90 stood at 5900 nM. Further, the CC50 with HepG2 was found to be 8400 nM. In addition, in the data set with HepG2 (setting [4]), the “(YI) ratio of CC50/EC50, therapeutic index” value came out at 3.7.
As for `C#CCCCCN1CCN(CC2=C(C(=O)OC)C(c3ccc(F)cc3Cl)N=C(c3ccccn3)N2)CC1` (stereo not shown) [Compound B-073], in data set [2], the Assembly stood at 69%. For the same compound, in data set [1] (compound at 10 μM), the “% Inhibition” value was 64.44% and the Δ-Ct-HBV was found to be 1.5. Also, the EC50 in data set [1] (setting [3]) amounted to 7600 nM. In data set [1], this compound displayed an EC90 above 10000 nM. The compound also returned a CC50 with HepG2 of 3700 nM. The “(YI) ratio of CC50/EC50, therapeutic index” value in the data set on HepG2 (setting [4]) is given as 0.5.
In turn, `COC(=O)C1=C(CN2CCNC(=O)CC2)NC(c2ccccn2)=NC1c1ccc(F)cc1Cl` (stereo not shown) [Compound B-120] came in with an Assembly in data set [2] of 96%. For the same compound, in data set [1] (compound at 10 μM), the “% Inhibition” value was 99.87% and the Δ-Ct-HBV is given as 9.65. Moreover, the EC50 in data set [1] (setting [3]) came out at 300 nM. Moreover, the EC90 in data set [1] was found to be 900 nM. Besides, the CC50 in the data set with HepG2 came out at 32000 nM. Further, in the data set with HepG2 (setting [4]), the “(YI) ratio of CC50/EC50, therapeutic index” value turned out to be 99.
For `COC(=O)C1=C(CCl)NC(c2ccccn2)=NC1c1ccc(F)cc1Cl` (stereo not shown) [HAP2, reference compound], in data set [2], the Assembly came to 99%.
